According to patent US9822124B2, “Bicyclic heteroaromatic carboxamide compounds useful as Pim kinase inhibitors” (Incyte Corporation, priority 2014, dated 2017):

Columns and labels:
Format in all cases: biochemical
Pim-1 = Pim-1 (Homo sapiens (Human), UniProt P11309); assay: Pim-1 kinase assay (AlphaScreen, Biotin-labeled BAD peptide substrate); conditions: 1 mM ATP; read-out: Pim1 IC50
Method: (§1) Pim-1 and Pim-3 kinase assays—20 μL reactions were run in white 384 well polystyrene plates dotted with 0.8 μL compound/DMSO in the assay buffer (50 mM Tris, pH 7.5, 0.01% Tween-20, 5 mM MgCl2, 0.01% BSA, 5 mM DTT), containing 0.05 μM Biotin-labeled BAD peptide substrate (AnaSpec 62269), 1 mM ATP, and […] (Pim-1, Invitrogen PV3503) or […] (Pim-3, Millipore 14-738) enzyme for 1 h at 25° C. Reactions were stopped by addition of 10 μL STOP Buffer (150 mM Tris, pH=7.5, 150 mM NaCl, 75 mM EDTA, 0.01% Tween-20, 0.3% BSA) supplemented with Phospho-Bad (Ser112) Antibody (Cell Signaling 9291) diluted 666-fold, and Streptavidin donor beads (PerkinElmer 6760002) along with Protein-A acceptor beads (PerkinElmer 6760137) at 15 μg/mL each. Supplementation of the STOP buffer with beads and stopping the reactions were done under reduced light. Prior to the stopping reactions STOP buffer with beads was preincubated for 1 h in the dark at room temperature. After stopping the reactions, plates were incubated for 1 h in the dark at room temperature before reading on a PHERAstar FS plate reader (BMG Labtech) under reduced light.

Pim-3 = Pim-3 (Homo sapiens (Human), UniProt Q86V86); assay: Pim-3 kinase assay (AlphaScreen, Biotin-labeled BAD peptide substrate); conditions: 1 mM ATP; read-out: Pim3 IC50
Method: as §1

Pim-2 = Pim-2 (Homo sapiens (Human), UniProt Q9P1W9); assay: Pim-2 kinase assay (TR-FRET, Fluorescein-labeled CREBtide peptide substrate); conditions: 1 mM ATP; read-out: Pim2 IC50
Chain of Pim-2 (Q9P1W9 whole entry): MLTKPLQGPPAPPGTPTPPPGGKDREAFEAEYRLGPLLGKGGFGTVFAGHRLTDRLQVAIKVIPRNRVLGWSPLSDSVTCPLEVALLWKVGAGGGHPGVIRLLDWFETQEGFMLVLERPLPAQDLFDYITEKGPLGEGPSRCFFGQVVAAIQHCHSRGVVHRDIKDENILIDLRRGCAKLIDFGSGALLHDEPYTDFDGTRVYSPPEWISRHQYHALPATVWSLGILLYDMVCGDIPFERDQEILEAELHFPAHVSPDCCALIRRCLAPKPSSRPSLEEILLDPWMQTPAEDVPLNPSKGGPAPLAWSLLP
Method: Pim-2 kinase assay—20 μL reactions were run in white 384 well polystyrene plates dotted with 0.8 μL compound/DMSO in the assay buffer (50 mM Tris, pH 7.5, 0.01% Tween-20, 5 mM MgCl2, 0.01% BSA, 5 mM DTT), containing 0.05 μM Fluorescein-labeled CREBtide peptide substrate (Invitrogen PV3508), 1 mM ATP, and 1 nM enzyme (Invitrogen PV3649) for 2 h at 25° C. Reactions were stopped by addition of 10 μL TR-FRET Dilution Buffer (Invitrogen PV3574) with 30 mM EDTA and 1.5 nM LanthaScreen Tb-CREB pSer133 antibody (Invitrogen PV3566). After 30 min. incubation at room temperature, plates were read on a PHERAstar FS plate reader (BMG Labtech).

Chain of Pim-1 (P11309 whole entry): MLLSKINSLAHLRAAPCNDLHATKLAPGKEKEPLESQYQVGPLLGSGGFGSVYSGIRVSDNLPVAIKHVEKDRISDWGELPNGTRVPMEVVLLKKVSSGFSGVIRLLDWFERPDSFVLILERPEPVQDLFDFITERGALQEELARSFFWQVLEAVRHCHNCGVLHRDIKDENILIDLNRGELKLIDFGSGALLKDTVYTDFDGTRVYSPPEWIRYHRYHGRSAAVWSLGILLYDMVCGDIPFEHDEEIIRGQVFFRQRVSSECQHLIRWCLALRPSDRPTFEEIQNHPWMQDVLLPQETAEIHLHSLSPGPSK

Row | Structure (SMILES) | IC50 (Pim-1) | IC50 (Pim-3) | IC50 (Pim-2)
1 | CCc1coc2ccc(C(=O)Nc3cnccc3N3C[C@@H](N)[C@H](O)[C@@H](C)C3)nc12 [Example 15, N-(4-((3R,4R,5S)-3-Amino-4-hydroxy-5-methylpiperidin-1-yl)pyridin-3-yl)-3-ethylfuro[3,2-b]pyridine-5-carboxamide] | ≤ 10 nM | ≤ 10 nM | ≤ 100 nM
2 | C[C@H]1CN(c2ccncc2NC(=O)c2ccc3occ(C4CCN(C)CC4)c3n2)C[C@@H](N)[C@@H]1O [Example 16, N-(4-((3R,4R,5S)-3-Amino-4-hydroxy-5-methylpiperidin-1-yl)pyridin-3-yl)-3-(1-methylpiperidin-4-yl)furo[3,2-b]pyridine-5-carboxamide] | 10 to 50 nM | > 40 nM | > 2000 nM
3 | C[C@H]1CN(c2ccncc2NC(=O)c2ccc3occ(C4CCOCC4)c3n2)C[C@@H](N)[C@@H]1O [Example 17, N-(4-((3R,4R,5S)-3-Amino-4-hydroxy-5-methylpiperidin-1-yl)pyridin-3-yl)-3-(tetrahydro-2H-pyran-4-yl)furo[3,2-b]pyridine-5-carboxamide] | ≤ 10 nM | ≤ 10 nM | 100 to 1000 nM
4 | CC(C)c1coc2ccc(C(=O)Nc3cnccc3N3C[C@H](C)C[C@H](N)C3)nc12 [Example 18, N-(4-((3S,5R)-3-Amino-5-methylpiperidin-1-yl)pyridin-3-yl)-3-isopropylfuro[3,2-b]pyridine-5-carboxamide] | ≤ 10 nM | ≤ 10 nM | ≤ 100 nM
5 | C[C@@H]1C[C@H](N)CN(c2ccncc2NC(=O)c2ccc3occ(-c4c(F)cccc4F)c3n2)C1 [Example 19, N-(4-((3S,5R)-3-Amino-5-methylpiperidin-1-yl)pyridin-3-yl)-3-(2,6-difluorophenyl)furo[3,2-b]pyridine-5-carboxamide] | ≤ 10 nM | ≤ 10 nM | ≤ 100 nM
6 | CCc1coc2ccc(C(=O)Nc3cnccc3N3C[C@H](C)C[C@H](N)C3)nc12 [Example 20, N-(4-((3S,5R)-3-Amino-5-methylpiperidin-1-yl)pyridin-3-yl)-3-ethylfuro[3,2-b]pyridine-5-carboxamide] | ≤ 10 nM | ≤ 10 nM | ≤ 100 nM
7 | C[C@@H]1C[C@H](N)CN(c2ccncc2NC(=O)c2ccc3occ(-c4ccccc4F)c3n2)C1 [Example 21, N-(4-((3S,5R)-3-Amino-5-methylpiperidin-1-yl)pyridin-3-yl)-3-(2-fluorophenyl)furo[3,2-b]pyridine-5-carboxamide] | ≤ 10 nM | ≤ 10 nM | ≤ 100 nM
8 | COc1ccc(F)c(-c2coc3ccc(C(=O)Nc4cnccc4N4C[C@H](C)C[C@H](N)C4)nc23)c1F [Example 22, N-(4-((3S,5R)-3-Amino-5-methylpiperidin-1-yl)pyridin-3-yl)-3-(2,6-difluoro-3-methoxyphenyl)furo[3,2-b]pyridine-5-carboxamide] | ≤ 10 nM | ≤ 10 nM | ≤ 100 nM
9 | COc1ccc(-c2coc3ccc(C(=O)Nc4cnccc4N4C[C@H](C)C[C@H](N)C4)nc23)cn1 [Example 23, N-(4-((3S,5R)-3-Amino-5-methylpiperidin-1-yl)pyridin-3-yl)-3-(6-methoxypyridin-3-yl)furo[3,2-b]pyridine-5-carboxamide] | ≤ 10 nM | 10 to 50 nM | 1000 to 10000 nM
10 | C[C@@H]1C[C@H](N)CN(c2ccncc2NC(=O)c2ccc3occ(C4CCN(C)CC4)c3n2)C1 [Example 24, N-(4-((3S,5R)-3-Amino-5-methylpiperidin-1-yl)pyridin-3-yl)-3-(1-methylpiperidin-4-yl)furo[3,2-b]pyridine-5-carboxamide] | ≤ 10 nM | > 40 nM | > 2000 nM
11 | C[C@@H]1C[C@H](N)CN(c2ccncc2NC(=O)c2ccc3occ(C4CCOCC4)c3n2)C1 [Example 25, N-(4-((3S,5R)-3-Amino-5-methylpiperidin-1-yl)pyridin-3-yl)-3-(tetrahydro-2H-pyran-4-yl)furo[3,2-b]pyridine-5-carboxamide] | ≤ 10 nM | ≤ 10 nM | 100 to 1000 nM
12 | C[C@@H]1C[C@H](N)CN(c2ccncc2NC(=O)c2ccc3occ(-c4cncc(C#N)c4)c3n2)C1 [Example 26, N-(4-((3S,5R)-3-Amino-5-methylpiperidin-1-yl)pyridin-3-yl)-3-(5-cyanopyridin-3-yl)furo[3,2-b]pyridine-5-carboxamide] | ≤ 10 nM | 10 to 50 nM | > 2000 nM
13 | C[C@@H]1C[C@H](N)CN(c2ccncc2NC(=O)c2ccc3occ(-c4cc(F)nc(F)c4)c3n2)C1 [Example 27, N-(4-((3S,5R)-3-Amino-5-methylpiperidin-1-yl)pyridin-3-yl)-3-(2,6-difluoropyridin-4-yl)furo[3,2-b]pyridine-5-carboxamide] | 10 to 50 nM | > 40 nM | > 2000 nM
14 | C[C@@H]1C[C@H](N)CN(c2ccncc2NC(=O)c2ccc3occ(-c4cnoc4)c3n2)C1 [Example 28, N-(4-((3S,5R)-3-Amino-5-methylpiperidin-1-yl)pyridin-3-yl)-3-(isoxazol-4-yl)furo[3,2-b]pyridine-5-carboxamide] | ≤ 10 nM | 10 to 50 nM | > 2000 nM
15 | C[C@@H]1C[C@H](N)CN(c2ccncc2NC(=O)c2ccc3occ(-c4cnn(C)c4)c3n2)C1 [Example 29, N-(4-((3S,5R)-3-Amino-5-methylpiperidin-1-yl)pyridin-3-yl)-3-(1-methyl-1H-pyrazol-4-yl)furo[3,2-b]pyridine-5-carboxamide] | ≤ 10 nM | 10 to 50 nM | 1000 to 10000 nM
16 | C[C@@H]1C[C@H](N)CN(c2ccncc2NC(=O)c2ccc3occ(-c4cncnc4)c3n2)C1 [Example 30, N-(4-((3S,5R)-3-Amino-5-methylpiperidin-1-yl)pyridin-3-yl)-3-(pyrimidin-5-yl)furo[3,2-b]pyridine-5-carboxamide] | 10 to 50 nM | > 40 nM | > 2000 nM
17 | COc1cncc(-c2coc3ccc(C(=O)Nc4cnccc4N4C[C@H](C)C[C@H](N)C4)nc23)c1 [Example 32, N-(4-((3S,5R)-3-Amino-5-methylpiperidin-1-yl)pyridin-3-yl)-3-(5-methoxypyridin-3-yl)furo[3,2-b]pyridine-5-carboxamide] | ≤ 10 nM | ≤ 10 nM | 1000 to 10000 nM
18 | C[C@@H]1C[C@H](N)CN(c2ccncc2NC(=O)c2ccc3occ(C4=COCCC4)c3n2)C1 [Example 33, N-(4-((3S,5R)-3-Amino-5-methylpiperidin-1-yl)pyridin-3-yl)-3-(3,4-dihydro-2H-pyran-5-yl)furo[3,2-b]pyridine-5-carboxamide] | ≤ 10 nM | ≤ 10 nM | ≤ 100 nM
19 | C[C@H]1CN(c2ccncc2NC(=O)c2ccc3occ(C4CC4)c3n2)C[C@@H](N)[C@@H]1O [Example 34, N-(4-((3R,4R,5S)-3-Amino-4-hydroxy-5-methylpiperidin-1-yl)pyridin-3-yl)-3-cyclopropylfuro[3,2-b]pyridine-5-carboxamide] | ≤ 10 nM | ≤ 10 nM | ≤ 100 nM
20 | C[C@@H]1C[C@H](N)CN(c2ccncc2NC(=O)c2ccc3occ(C4CC4)c3n2)C1 [Example 35, N-(4-((3S,5R)-3-Amino-5-methylpiperidin-1-yl)pyridin-3-yl)-3-cyclopropylfuro[3,2-b]pyridine-5-carboxamide] | ≤ 10 nM | ≤ 10 nM | ≤ 100 nM
21 | CC(C)c1coc2ccc(C(=O)Nc3cnccc3N3CCC[C@H](N)C3)nc12 [Example 36, (S)-N-(4-(3-Aminopiperidin-1-yl)pyridin-3-yl)-3-isopropylfuro[3,2-b]pyridine-5-carboxamide] | ≤ 10 nM | ≤ 10 nM | ≤ 100 nM
22 | N[C@H]1CCCN(c2ccncc2NC(=O)c2ccc3occ(-c4c(F)cccc4F)c3n2)C1 [Example 37, (S)-N-(4-(3-Aminopiperidin-1-yl)pyridin-3-yl)-3-(2,6-difluorophenyl)furo[3,2-b]pyridine-5-carboxamide] | ≤ 10 nM | ≤ 10 nM | ≤ 100 nM
23 | CCCc1cc2nc(C(=O)Nc3cnccc3N3C[C@@H](N)[C@H](O)[C@@H](C)C3)ccc2s1 [Example 38, N-(4-((3R,4R,5S)-3-Amino-4-hydroxy-5-methylpiperidin-1-yl)pyridin-3-yl)-2-propylthieno[3,2-b]pyridine-5-carboxamide] | ≤ 10 nM | ≤ 10 nM | 100 to 1000 nM
